Measured values: patent publication US20230201217A1 (priority 2019, published 2023)

Key:
[1] = system: cynomolgus monkeys; assay: 14-day nasogastric gavage GLP toxicity study in cynomolgus monkeys; assay type: in vivo, cynomolgus monkey
Text: Assessments of neurobehavioral effects and general toxicity were based on mortality, functional observational battery (FOB) evaluations, clinical observations, body weight, and body temperature; ophthalmoscopic, electrocardiographic examinations; and anatomic and clinical pathology. The anatomical pathology evaluations included histopathology of a full list of tissues from all animals and a comprehensive evaluation of the central nervous system (including selected peripheral nerves) utilizing whole body perfusion and special stains. Bone marrow smears from all animals were evaluated microscopically. Complete differentials and myeloid-erythroid (ME) ratios were performed. Toxicokinetic assessment was conducted for the test article and metabolites.

[2] = system: polychromatic erythrocytes in mouse bone marrow; assay: Mouse bone marrow in vivo micronucleus assay
Protocol: Treatment resulted and clinical signs of lethargy and piloerection at doses of 200-400 mg/kg and in mortality of male and female ICR mice at doses of 300 and 400 mg/kg. The highest non-lethal dose was 250 mg/kg.
These doses were based upon prior toxicology data indicating higher doses were associated with mortality in this species. […] A positive control group received a single oral dose of 60 mg/kg cyclophosphamide on Day 2, the day prior to the scheduled euthanasia. Each group consisted of 6 males. Males only were used as no significant differences in response related to gender were expected based upon prior toxicology and toxicokinetic data. All animals were euthanized on Day 3, the day following the final dose and discarded following bone marrow collection.
All animals were observed twice daily for mortality and moribundity. Bone marrow collection for micronucleus evaluation was performed for 5 of the 6 animals in each group at the scheduled euthanasia (Day 3). All animals were discarded without necropsy. Bone marrow smears were prepared, and the coded slides were counted for polychromatic, normochromatic, and micronucleated polychromatic erythrocytes following the final bone marrow sample collection on Day 3.

[3] = biological target: CYP2C9 (Homo sapiens, UniProt P11712); conditions: recombinant enzyme
CYP2C9, sequence (P11712 whole entry): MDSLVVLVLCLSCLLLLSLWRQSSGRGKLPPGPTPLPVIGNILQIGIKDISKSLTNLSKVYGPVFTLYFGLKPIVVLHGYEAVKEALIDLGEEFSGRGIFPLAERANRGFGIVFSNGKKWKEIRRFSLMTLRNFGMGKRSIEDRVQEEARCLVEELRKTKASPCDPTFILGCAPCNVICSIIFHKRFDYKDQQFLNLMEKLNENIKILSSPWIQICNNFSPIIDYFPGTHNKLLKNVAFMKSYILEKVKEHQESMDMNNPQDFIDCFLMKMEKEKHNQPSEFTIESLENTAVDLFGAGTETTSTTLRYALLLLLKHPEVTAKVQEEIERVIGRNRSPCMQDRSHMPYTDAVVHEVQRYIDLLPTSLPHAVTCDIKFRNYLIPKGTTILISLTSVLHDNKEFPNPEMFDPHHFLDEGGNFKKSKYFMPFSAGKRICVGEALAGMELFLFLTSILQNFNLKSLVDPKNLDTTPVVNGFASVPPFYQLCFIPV
Protocol: (§1) Control incubations were performed for each assay with appropriate positive inhibitory controls.

[4] = biological target: CYP2C19 (Homo sapiens, UniProt P33261); conditions: recombinant enzyme
CYP2C19, sequence (P33261 whole entry): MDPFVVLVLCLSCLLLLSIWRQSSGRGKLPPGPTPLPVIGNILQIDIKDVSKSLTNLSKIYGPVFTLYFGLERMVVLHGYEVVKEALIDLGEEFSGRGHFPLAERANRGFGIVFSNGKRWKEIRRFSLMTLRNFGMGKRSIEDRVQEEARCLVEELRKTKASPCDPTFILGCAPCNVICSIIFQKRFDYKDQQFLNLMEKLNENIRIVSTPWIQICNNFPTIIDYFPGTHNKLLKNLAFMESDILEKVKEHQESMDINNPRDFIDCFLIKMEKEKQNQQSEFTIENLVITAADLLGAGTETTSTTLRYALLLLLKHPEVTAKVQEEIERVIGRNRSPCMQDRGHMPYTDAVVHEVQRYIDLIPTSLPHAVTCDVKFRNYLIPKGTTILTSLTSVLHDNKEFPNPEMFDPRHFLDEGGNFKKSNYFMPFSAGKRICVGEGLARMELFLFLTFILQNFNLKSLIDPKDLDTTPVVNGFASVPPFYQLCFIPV
Protocol: as §1

[5] = system: animal substance use models; conditions: i.p.; cited from earlier work
[6] = 400/300 mg/kg/day F, 3 examined
[7] = 400/300 mg/kg/day M, 4 examined

COCCC1CC2CN3CCc4c([nH]c5ccccc45)C(C(=O)OC)(C2)C13.Cl (centres unmarked) [18-MC HCl, 18-Methoxycoronaridine hydrochloride]
Bone marrow, femur: Depletion, mixed, minimal; number with observation ([1]; 150 mg/kg/day M): 1
Bone marrow, femur: Depletion, mixed, moderate; number with observation ([1]; 150 mg/kg/day M): 0
Bone marrow, rib: Depletion, mixed, mild; number with observation ([1]; 150 mg/kg/day M): 0
Bone marrow, rib: Depletion, mixed, minimal; number with observation ([1]; 150 mg/kg/day M): 1
Bone marrow, rib: Depletion, mixed, moderate; number with observation ([1]; 150 mg/kg/day M): 0
Bone marrow, rib: Depletion, mixed; number with observation ([1]; 150 mg/kg/day M): 1
Bone marrow, sternum: Depletion, mixed, mild; number with observation ([1]; 150 mg/kg/day M): 0
Bone marrow, sternum: Depletion, mixed, minimal; number with observation ([1]; 150 mg/kg/day M): 1
Bone marrow, sternum: Depletion, mixed, moderate; number with observation ([1]; 150 mg/kg/day M): 0
Bone marrow, sternum: Depletion, mixed; number with observation ([1]; 150 mg/kg/day M): 1
Liver: Hypertrophy, hepatocellular, panlobular, mild; number with observation ([1]; 150 mg/kg/day M): 3
Liver: Hypertrophy, hepatocellular, panlobular, minimal; number with observation ([1]; 150 mg/kg/day M): 0
Thymus: Depletion lymphoid, generalized, mild; number with observation ([1]; 150 mg/kg/day M): 0
Thymus: Depletion lymphoid, generalized, moderate; number with observation ([1]; 150 mg/kg/day M): 0
Thymus: Depletion lymphoid, generalized; number with observation ([1]; 150 mg/kg/day M): 0
Thymus: Depletion, lymphoid, cortex, mild; number with observation ([1]; 150 mg/kg/day M): 2
Thymus: Depletion, lymphoid, cortex, minimal; number with observation ([1]; 150 mg/kg/day M): 1
Thymus: Depletion, lymphoid, cortex, moderate; number with observation ([1]; 150 mg/kg/day M): 0
mean cumulative body gain (Days 1-14) ([1]; 150 mg/kg/day M): -0.28 kg
Bone marrow, femur: Depletion, mixed; number with observation ([1]; 150 mg/kg/day M, 3 examined): 1
Liver: Hypertrophy, hepatocellular, panlobular; number with observation ([1]; 150 mg/kg/day M, 3 examined): 3
Thymus: Depletion, lymphoid, cortex; number with observation ([1]; 150 mg/kg/day M, 3 examined): 3
mortality ([1]; 400 mg/kg, first day of dosing): one male died
Bone marrow, femur: Depletion, mixed, mild; number with observation ([1]; 400/300 mg/kg/day F): 0
Bone marrow, femur: Depletion, mixed, minimal; number with observation ([1]; 400/300 mg/kg/day F): 1
Bone marrow, femur: Depletion, mixed, moderate; number with observation ([1]; 400/300 mg/kg/day F): 0
Bone marrow, rib: Depletion, mixed, mild; number with observation ([1]; 400/300 mg/kg/day F): 1
Bone marrow, rib: Depletion, mixed, minimal; number with observation ([1]; 400/300 mg/kg/day F): 0
Bone marrow, rib: Depletion, mixed, moderate; number with observation ([1]; 400/300 mg/kg/day F): 0
Bone marrow, rib: Depletion, mixed; number with observation ([1]; 400/300 mg/kg/day F): 1
Bone marrow, sternum: Depletion, mixed, mild; number with observation ([1]; 400/300 mg/kg/day F): 1
Bone marrow, sternum: Depletion, mixed, minimal; number with observation ([1]; 400/300 mg/kg/day F): 0
Bone marrow, sternum: Depletion, mixed, moderate; number with observation ([1]; 400/300 mg/kg/day F): 0
Bone marrow, sternum: Depletion, mixed; number with observation ([1]; 400/300 mg/kg/day F): 1
Liver: Hypertrophy, hepatocellular, panlobular, mild; number with observation ([1]; 400/300 mg/kg/day F): 3
Liver: Hypertrophy, hepatocellular, panlobular, minimal; number with observation ([1]; 400/300 mg/kg/day F): 0
Thymus: Depletion lymphoid, generalized, mild; number with observation ([1]; 400/300 mg/kg/day F): 2
Thymus: Depletion lymphoid, generalized, moderate; number with observation ([1]; 400/300 mg/kg/day F): 1
Thymus: Depletion lymphoid, generalized; number with observation ([1]; 400/300 mg/kg/day F): 3
Thymus: Depletion, lymphoid, cortex, mild; number with observation ([1]; 400/300 mg/kg/day F): 0
Thymus: Depletion, lymphoid, cortex, minimal; number with observation ([1]; 400/300 mg/kg/day F): 0
Thymus: Depletion, lymphoid, cortex, moderate; number with observation ([1]; 400/300 mg/kg/day F): 0
mean cumulative body gain (Days 1-14) ([1]; 400/300 mg/kg/day F): -0.09 kg
Bone marrow, femur: Depletion, mixed; number with observation [1, 6]: 1
Liver: Hypertrophy, hepatocellular, panlobular; number with observation [1, 6]: 3
Thymus: Depletion, lymphoid, cortex; number with observation [1, 6]: 0
Bone marrow, femur: Depletion, mixed, mild; number with observation ([1]; 400/300 mg/kg/day M): 1
Bone marrow, femur: Depletion, mixed, minimal; number with observation ([1]; 400/300 mg/kg/day M): 0
Bone marrow, femur: Depletion, mixed, moderate; number with observation ([1]; 400/300 mg/kg/day M): 1
Bone marrow, rib: Depletion, mixed, mild; number with observation ([1]; 400/300 mg/kg/day M): 1
Bone marrow, rib: Depletion, mixed, minimal; number with observation ([1]; 400/300 mg/kg/day M): 0
Bone marrow, rib: Depletion, mixed, moderate; number with observation ([1]; 400/300 mg/kg/day M): 1
Bone marrow, rib: Depletion, mixed; number with observation ([1]; 400/300 mg/kg/day M): 2
Bone marrow, sternum: Depletion, mixed, mild; number with observation ([1]; 400/300 mg/kg/day M): 1
Bone marrow, sternum: Depletion, mixed, minimal; number with observation ([1]; 400/300 mg/kg/day M): 0
Bone marrow, sternum: Depletion, mixed, moderate; number with observation ([1]; 400/300 mg/kg/day M): 1
Bone marrow, sternum: Depletion, mixed; number with observation ([1]; 400/300 mg/kg/day M): 2
Liver: Hypertrophy, hepatocellular, panlobular, mild; number with observation ([1]; 400/300 mg/kg/day M): 3
Liver: Hypertrophy, hepatocellular, panlobular, minimal; number with observation ([1]; 400/300 mg/kg/day M): 0
Thymus: Depletion lymphoid, generalized, mild; number with observation ([1]; 400/300 mg/kg/day M): 1
Thymus: Depletion lymphoid, generalized, moderate; number with observation ([1]; 400/300 mg/kg/day M): 2
Thymus: Depletion lymphoid, generalized; number with observation ([1]; 400/300 mg/kg/day M): 3
Thymus: Depletion, lymphoid, cortex, mild; number with observation ([1]; 400/300 mg/kg/day M): 0
Thymus: Depletion, lymphoid, cortex, minimal; number with observation ([1]; 400/300 mg/kg/day M): 0
Thymus: Depletion, lymphoid, cortex, moderate; number with observation ([1]; 400/300 mg/kg/day M): 0
mean cumulative body gain (Days 1-14) ([1]; 400/300 mg/kg/day M): -0.23 kg
Bone marrow, femur: Depletion, mixed; number with observation [1, 7]: 2
Liver: Hypertrophy, hepatocellular, panlobular; number with observation [1, 7]: 3
Thymus: Depletion, lymphoid, cortex; number with observation [1, 7]: 0
NOAEL ([1]; 14 days): 50 mg/kg/day
highest non-lethal dose ([1]; cynomolgus monkey, in vivo): 300 mg/kg
lethality ([2]; GLP, 120 mg/kg/day group, within 3 hours of dosing): Lethality was observed in a single animal
incidence of micro-nucleated polychromatic erythrocytes (MPCE) ([2]; non-GLP, 250 mg/kg and less): No significant increase
highest non-lethal dose ([2]; non-GLP, single oral dose, suspension in PBS pH 7.4, ICR mice): 250 mg/kg
IC50 [3]: < 1500 nM
IC50 [4]: < 1500 nM
lowest dosage that significantly reduces drug self-administration [5]: ≥ 10 mg/kg
